According to ChEMBL document CHEMBL1143711, “Design, synthesis, and evaluation of potent, structurally novel peroxisome proliferator-activated receptor (PPAR) delta-selective agonists” (Bioorg Med Chem, 2007):

How the values were obtained:
[1] = molecular target: T1, Peroxisome proliferator-activated receptor gamma (Homo sapiens, UniProt P37231); assay type: cell-based, HEK293
T1 sequence (P37231 whole entry): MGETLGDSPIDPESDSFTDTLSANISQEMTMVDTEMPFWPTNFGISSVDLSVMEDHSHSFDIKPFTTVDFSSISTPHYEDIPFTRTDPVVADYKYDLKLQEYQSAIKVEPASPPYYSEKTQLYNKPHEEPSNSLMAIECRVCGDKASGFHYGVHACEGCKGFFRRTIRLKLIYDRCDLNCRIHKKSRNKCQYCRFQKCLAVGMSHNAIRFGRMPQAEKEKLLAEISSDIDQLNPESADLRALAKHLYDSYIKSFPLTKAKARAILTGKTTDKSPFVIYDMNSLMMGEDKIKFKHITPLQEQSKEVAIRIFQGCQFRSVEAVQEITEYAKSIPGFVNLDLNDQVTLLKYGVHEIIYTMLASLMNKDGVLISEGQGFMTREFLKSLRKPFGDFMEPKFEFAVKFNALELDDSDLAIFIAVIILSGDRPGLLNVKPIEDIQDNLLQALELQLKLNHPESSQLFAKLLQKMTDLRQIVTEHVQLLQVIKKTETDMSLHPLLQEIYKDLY

[2] = molecular target: T2, Peroxisome proliferator-activated receptor alpha (Homo sapiens, UniProt Q07869); experiment: Effect on PPARalpha transactivation activity in HEK293 cells; assay type: cell-based
T2 sequence (Q07869 whole entry): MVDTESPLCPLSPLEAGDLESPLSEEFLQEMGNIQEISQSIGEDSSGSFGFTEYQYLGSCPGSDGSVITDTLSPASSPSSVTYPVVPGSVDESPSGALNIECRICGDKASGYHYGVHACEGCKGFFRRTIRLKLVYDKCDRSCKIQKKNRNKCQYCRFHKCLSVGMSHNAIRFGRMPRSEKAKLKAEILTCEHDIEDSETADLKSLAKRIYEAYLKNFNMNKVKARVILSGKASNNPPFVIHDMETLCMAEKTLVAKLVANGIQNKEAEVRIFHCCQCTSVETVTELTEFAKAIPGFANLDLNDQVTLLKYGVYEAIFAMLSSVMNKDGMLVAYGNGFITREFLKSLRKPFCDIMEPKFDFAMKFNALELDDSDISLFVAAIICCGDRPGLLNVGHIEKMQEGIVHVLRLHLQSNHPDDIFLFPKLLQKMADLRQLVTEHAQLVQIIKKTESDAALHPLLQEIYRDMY

[3] = molecular target: T3, Peroxisome proliferator-activated receptor delta (Homo sapiens, UniProt Q03181)
T3 sequence (Q03181 whole entry): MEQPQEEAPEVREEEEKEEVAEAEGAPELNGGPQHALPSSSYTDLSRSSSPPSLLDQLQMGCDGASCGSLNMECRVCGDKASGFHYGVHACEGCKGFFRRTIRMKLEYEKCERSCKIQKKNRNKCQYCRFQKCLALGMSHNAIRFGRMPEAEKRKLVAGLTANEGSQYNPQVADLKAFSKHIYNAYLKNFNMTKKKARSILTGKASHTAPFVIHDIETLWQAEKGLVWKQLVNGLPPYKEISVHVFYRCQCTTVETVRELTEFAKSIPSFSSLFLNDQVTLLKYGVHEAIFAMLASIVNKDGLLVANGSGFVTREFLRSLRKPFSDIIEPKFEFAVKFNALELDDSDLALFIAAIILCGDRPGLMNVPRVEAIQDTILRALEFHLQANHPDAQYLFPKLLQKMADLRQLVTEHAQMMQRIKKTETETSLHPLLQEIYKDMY

EC50 [1] | EC50 [2] | SMILES | EC50 [3]
> 10 µM |  | COc1ccc(CC(C)C(=O)O)cc1CNC(=O)c1ccc(C(F)(F)F)cc1 (stereo not given) | 
> 10 µM |  | COc1ccc(CCC(=O)O)cc1CNC(=O)c1ccc(C(F)(F)F)cc1 | 
 | > 10 µM | CCC(Cc1ccc(OCc2ccccc2)c(CNC(=O)c2ccc(C(F)(F)F)cc2)c1)C(=O)O (stereo not given) | 

SMILES | EC50 [1] | EC50 [2] | EC50 [3]
CCCCOc1ccc(C[C@@H](CC)C(=O)O)cc1CNC(=O)c1ccc(C(F)(F)F)cc1F | 7 µM |  | 0.0083 µM
